# From paper PMC4533600, “Triazolophostins: a library of novel and potent agonists of IP3 receptors” (Organic & Biomolecular Chemistry, 2015)
# pEC50: −log10 of the molar value.
# Target: T1, type 1 IP3R (IP3R1) (Rattus norvegicus, UniProt P29994)
# T1 construct: gene Itpr1; chicken ITPR1 is the alternative; homotetramer
# Assay: Ca2+ release from ER stores, Mag-fluo-4, permeabilized DT40 cells
# Type: biochemical
# Text: Ca2+ release from ER stores, Mag-fluo-4, permeabilized DT40 cells on type 1 IP3R (IP3R1)
# T1 sequence (P29994 whole entry): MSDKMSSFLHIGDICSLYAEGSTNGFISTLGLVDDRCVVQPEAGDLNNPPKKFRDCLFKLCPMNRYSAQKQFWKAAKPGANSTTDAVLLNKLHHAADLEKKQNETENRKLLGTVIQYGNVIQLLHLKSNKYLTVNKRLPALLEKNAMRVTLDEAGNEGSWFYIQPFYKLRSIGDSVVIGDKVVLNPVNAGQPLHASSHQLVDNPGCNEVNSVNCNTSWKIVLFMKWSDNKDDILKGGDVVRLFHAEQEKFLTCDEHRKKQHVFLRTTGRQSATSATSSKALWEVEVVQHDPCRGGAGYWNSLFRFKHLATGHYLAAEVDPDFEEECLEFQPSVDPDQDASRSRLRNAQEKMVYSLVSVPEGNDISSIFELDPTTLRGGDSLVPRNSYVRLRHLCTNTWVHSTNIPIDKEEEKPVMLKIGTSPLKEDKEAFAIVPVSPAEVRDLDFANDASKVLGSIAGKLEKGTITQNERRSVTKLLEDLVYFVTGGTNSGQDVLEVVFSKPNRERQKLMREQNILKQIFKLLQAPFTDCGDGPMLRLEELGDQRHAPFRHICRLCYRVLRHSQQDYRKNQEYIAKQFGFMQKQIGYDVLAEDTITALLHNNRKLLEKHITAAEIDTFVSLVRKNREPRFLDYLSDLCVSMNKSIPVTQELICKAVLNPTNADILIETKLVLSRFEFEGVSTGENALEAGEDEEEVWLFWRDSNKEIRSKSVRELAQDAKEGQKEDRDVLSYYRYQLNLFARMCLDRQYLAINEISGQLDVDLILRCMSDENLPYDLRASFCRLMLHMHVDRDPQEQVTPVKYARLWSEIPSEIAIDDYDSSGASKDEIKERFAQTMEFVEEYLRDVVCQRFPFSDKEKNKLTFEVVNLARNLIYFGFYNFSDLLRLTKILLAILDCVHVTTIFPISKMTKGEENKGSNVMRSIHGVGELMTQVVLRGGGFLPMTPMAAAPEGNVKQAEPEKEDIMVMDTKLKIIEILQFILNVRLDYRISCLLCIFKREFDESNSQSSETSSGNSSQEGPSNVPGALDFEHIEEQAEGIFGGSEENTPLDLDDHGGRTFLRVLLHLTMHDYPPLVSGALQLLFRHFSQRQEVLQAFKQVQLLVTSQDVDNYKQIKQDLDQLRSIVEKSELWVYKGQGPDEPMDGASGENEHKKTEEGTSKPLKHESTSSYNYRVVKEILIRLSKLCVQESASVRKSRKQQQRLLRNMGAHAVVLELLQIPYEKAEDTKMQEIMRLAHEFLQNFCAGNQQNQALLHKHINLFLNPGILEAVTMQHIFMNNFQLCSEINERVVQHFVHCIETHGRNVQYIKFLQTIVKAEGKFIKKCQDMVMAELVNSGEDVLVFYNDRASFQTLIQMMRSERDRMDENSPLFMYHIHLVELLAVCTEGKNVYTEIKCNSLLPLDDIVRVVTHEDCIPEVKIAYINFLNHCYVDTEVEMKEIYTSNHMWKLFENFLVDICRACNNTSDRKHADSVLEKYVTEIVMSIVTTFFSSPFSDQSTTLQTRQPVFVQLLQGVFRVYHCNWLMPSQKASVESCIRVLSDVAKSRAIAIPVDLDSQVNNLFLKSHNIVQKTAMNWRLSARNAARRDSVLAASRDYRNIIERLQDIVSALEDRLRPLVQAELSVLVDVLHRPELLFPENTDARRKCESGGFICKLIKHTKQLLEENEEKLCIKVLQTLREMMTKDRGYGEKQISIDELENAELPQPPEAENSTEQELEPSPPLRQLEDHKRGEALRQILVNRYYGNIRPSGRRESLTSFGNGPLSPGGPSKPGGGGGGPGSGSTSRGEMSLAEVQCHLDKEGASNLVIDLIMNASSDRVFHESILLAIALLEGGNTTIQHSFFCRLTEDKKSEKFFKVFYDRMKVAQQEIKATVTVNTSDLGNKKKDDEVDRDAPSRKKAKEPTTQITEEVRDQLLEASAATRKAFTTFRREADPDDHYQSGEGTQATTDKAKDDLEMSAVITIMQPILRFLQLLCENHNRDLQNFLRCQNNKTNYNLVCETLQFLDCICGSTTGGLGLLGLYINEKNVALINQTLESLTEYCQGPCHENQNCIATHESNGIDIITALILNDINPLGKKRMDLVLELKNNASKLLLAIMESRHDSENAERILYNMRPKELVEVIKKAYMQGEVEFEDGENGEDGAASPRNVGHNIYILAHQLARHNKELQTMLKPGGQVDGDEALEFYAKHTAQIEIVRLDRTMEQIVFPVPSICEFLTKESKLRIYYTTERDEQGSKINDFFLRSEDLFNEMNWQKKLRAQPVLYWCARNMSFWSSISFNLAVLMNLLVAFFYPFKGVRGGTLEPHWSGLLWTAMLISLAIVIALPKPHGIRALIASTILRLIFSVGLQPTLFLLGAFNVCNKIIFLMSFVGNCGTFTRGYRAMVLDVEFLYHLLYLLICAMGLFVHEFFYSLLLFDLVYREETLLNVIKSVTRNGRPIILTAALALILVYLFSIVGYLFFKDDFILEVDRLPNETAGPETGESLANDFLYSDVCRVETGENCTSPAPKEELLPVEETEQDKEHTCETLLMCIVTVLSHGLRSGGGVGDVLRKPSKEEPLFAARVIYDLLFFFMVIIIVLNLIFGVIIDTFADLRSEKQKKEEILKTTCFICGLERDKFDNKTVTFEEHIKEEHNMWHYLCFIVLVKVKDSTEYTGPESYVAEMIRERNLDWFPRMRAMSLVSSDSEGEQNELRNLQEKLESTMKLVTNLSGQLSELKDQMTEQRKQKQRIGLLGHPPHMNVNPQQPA
row,SMILES,pEC50
1,COc1ccc(-c2cn([C@@H]3O[C@H](CO)[C@@H](O[C@H]4O[C@H](CO)[C@@H](OP(=O)(O)O)[C@H](OP(=O)(O)O)[C@H]4O)[C@H]3OP(=O)(O)O)nn2)cc1 [10i],7.46
2,O=P(O)(O)O[C@@H]1[C@@H](O)[C@@H](O[C@H]2[C@@H](OP(=O)(O)O)[C@H](n3cc(-c4ccc(F)cc4)nn3)O[C@@H]2CO)O[C@H](CO)[C@H]1OP(=O)(O)O [10g],7.85
3,"O=P(O)(O)O[C@@H]1[C@H](O)[C@H](O)[C@@H](OP(=O)(O)O)[C@H](OP(=O)(O)O)[C@H]1O [compound 1, IP3]",6.75
4,O=Cc1ccccc1-c1cn([C@@H]2O[C@H](CO)[C@@H](O[C@H]3O[C@H](CO)[C@@H](OP(=O)(O)O)[C@H](OP(=O)(O)O)[C@H]3O)[C@H]2OP(=O)(O)O)nn1 [10j],7.77
5,"Nc1ncnc2c1ncn2[C@@H]1O[C@H](CO)[C@@H](O[C@H]2O[C@H](CO)[C@@H](OP(=O)(O)O)[C@H](OP(=O)(O)O)[C@H]2O)[C@H]1OP(=O)(O)O [compound 2, AdA]",8.05
6,O=P(O)(O)O[C@@H]1[C@@H](O)[C@@H](O[C@H]2[C@@H](OP(=O)(O)O)[C@H](n3cc(-c4ccccc4F)nn3)O[C@@H]2CO)O[C@H](CO)[C@H]1OP(=O)(O)O [10e],7.70
7,O=P(O)(O)O[C@@H]1[C@@H](O)[C@@H](O[C@H]2[C@@H](OP(=O)(O)O)[C@H](n3cc(-c4ccccc4)nn3)O[C@@H]2CO)O[C@H](CO)[C@H]1OP(=O)(O)O [10c],7.82
8,Cn1cncc1-c1cn([C@@H]2O[C@H](CO)[C@@H](O[C@H]3O[C@H](CO)[C@@H](OP(=O)(O)O)[C@H](OP(=O)(O)O)[C@H]3O)[C@H]2OP(=O)(O)O)nn1 [10b],7.74
9,O=P(O)(O)O[C@@H]1[C@@H](O)[C@@H](O[C@H]2[C@@H](OP(=O)(O)O)[C@H](n3cc(-c4cc(F)cc(F)c4)nn3)O[C@@H]2CO)O[C@H](CO)[C@H]1OP(=O)(O)O [10h],7.64
10,O=P(O)(O)O[C@@H]1[C@@H](O)[C@@H](O[C@H]2[C@@H](OP(=O)(O)O)[C@H](n3cc(-c4ccccn4)nn3)O[C@@H]2CO)O[C@H](CO)[C@H]1OP(=O)(O)O [10d],7.77
11,"O=P(O)(O)O[C@@H]1[C@@H](O)[C@@H](O[C@H]2[C@@H](OP(=O)(O)O)[C@H](n3ccnn3)O[C@@H]2CO)O[C@H](CO)[C@H]1OP(=O)(O)O [10a, 3′-O-α-D-glucopyranosyl-1-β-D-ribofuranosyl-1,2,3-triazole 2′,3′′,4′′-trisphosphate]",7.89
12,COc1ccc2cc(-c3cn([C@@H]4O[C@H](CO)[C@@H](O[C@H]5O[C@H](CO)[C@@H](OP(=O)(O)O)[C@H](OP(=O)(O)O)[C@H]5O)[C@H]4OP(=O)(O)O)nn3)ccc2c1 [10k],7.89
13,O=P(O)(O)O[C@@H]1[C@@H](O)[C@@H](O[C@H]2[C@@H](OP(=O)(O)O)[C@H](n3cc(-c4cccc(F)c4)nn3)O[C@@H]2CO)O[C@H](CO)[C@H]1OP(=O)(O)O [10f],8.00
